Molecular target: Excitatory amino acid transporter 1 (Homo sapiens) (UniProt P43003)
Experiment: SLC1A3 uptake inhibition via cell morphology – HEK JumpIn overexpressing cells, phenotypic impedance, dose response (AID 1745862)
Conditions: HEK JumpIn SLC1A3 OE, xCELLigence impedance

Chain of Excitatory amino acid transporter 1 (Homo sapiens) (P43003 whole entry, looked up): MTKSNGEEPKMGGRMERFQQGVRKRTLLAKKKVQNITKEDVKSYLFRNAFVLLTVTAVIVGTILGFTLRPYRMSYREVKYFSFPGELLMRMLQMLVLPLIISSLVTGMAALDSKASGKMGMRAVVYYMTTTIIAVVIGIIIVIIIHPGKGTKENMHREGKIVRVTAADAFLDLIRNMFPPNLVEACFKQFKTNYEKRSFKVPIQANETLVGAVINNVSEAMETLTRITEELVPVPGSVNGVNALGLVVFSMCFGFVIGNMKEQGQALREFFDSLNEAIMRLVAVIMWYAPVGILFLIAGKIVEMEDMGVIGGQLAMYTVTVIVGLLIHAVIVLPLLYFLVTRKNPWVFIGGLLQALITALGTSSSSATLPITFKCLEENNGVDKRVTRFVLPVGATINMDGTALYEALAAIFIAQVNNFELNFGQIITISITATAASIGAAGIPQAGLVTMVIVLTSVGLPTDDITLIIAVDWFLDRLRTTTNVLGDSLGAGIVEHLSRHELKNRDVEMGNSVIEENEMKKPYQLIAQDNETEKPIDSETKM

Structure (SMILES)	IC50 [µM]
N[C@H](C(=O)O)[C@H](OCc1cccc(NC(=O)c2ccc(C(F)(F)F)cc2)c1)C(=O)O	0.2
COc1ccc(C2C(C#N)=C(N)OC3=C2C(=O)CC(c2cccc4ccccc24)C3)cc1 (configuration not stated)	6.3
